What was measured:
Assay type in all cases: cell-based
[1] = system: HepG2 cells; assay: Palmitate-induced apoptosis, Caspase-Glo 3/7 activity in HepG2 cells; conditions: 24 h
Experimental: NAFLD is characterized by excessive hepatic fat accumulation which leads to cell death, including apoptosis, of liver cells in the progression of the disease. HepG2s (liver cell line) were seeded in a 96-well plate and cultured for 48 h before inducing cell death/apoptosis with 100 μM, 150 μM, 200 μM, 250 μM, 300 μM BSA-coupled palmitic acid (PA). A concentration-response curve to palmitate for apoptosis expressed as percentage of control of Caspase 3/7 (apoptosis marker) activity of HepG2 cells treated for 24 h were determined. As a positive control for apoptosis 2 μM staurosporine was used. Caspase 3/7 activity after 24 h was measured by a Caspase-Glo® 3/7 Assay (Promega) as described in the manufacturer's protocol. Luminescence was recorded after an incubation step of 35 min using the plate-reader luminometer of a Cytation™ 5.
HepG2 cells were treated with palmitate acid (200 μM) in the presence or absence of HK4 (100 nM) and GABA (100 μM), as well as with the vehicle BSA and the positive control for apoptosis staurosporine (STP) (2 μM) for 24 h. As a negative control an apoptosis inhibitor (API) (100 μM) was used. As described in Example I Caspase 3/7 activity after 24 h was measured by a Caspase-Glo® 3/7 Assay (Promega).

[2] = system: Caspase 7; assay: Human apoptosis array, Caspase 7 protein in lysates of treated HepG2 cells; conditions: HepG2, HK4 100 nM and PA
Experimental: Markers of apoptosis were analysed in the cell lysates of treated HepG2s with a human apoptosis array (RayBiotech, Peachtree Corners, GA) according to manufacturer's protocol. The total protein content was measured using the Pierce BCA protein assay kit (Thermo Fisher Scientific). Membranes were incubated with 250 μg of total protein from untreated and treated HepG2 cells. The spot intensities were quantified after an exposure of 500 ms using the ChemStudio analysis software (Analytik Jena) and normalized to the untreated control after background subtraction with the design spots for it.

[3] = system: primary human hepatocytes; assay: Palmitate-induced apoptosis, caspase 3/7 activity in human primary hepatocytes; conditions: 24 h
Excerpt: Human primary hepatocytes were purchased from Thermo Fisher and cultured according to the manufacturer's instructions. […] To achieve finale palmitate concentrations, sodium palmitate was complexed with a preheated BSA (Carl Roth, Karlsruhe, Germany) solution at a 2.6:1 molar ratio.

[4] = system: NF-κB subunit p65; assay: Western blot, phospho-NF-κB p65 to NF-κB p65 ratio in HepG2 cells
Experimental: Beside excessive hepatic fat accumulation, inflammation is one of the critical steps in the progression of NAFL to NASH. As an indicator of inflammation, phosphorylation of the transcription factor NF-κB was monitored by a phospho-p65 specific antibody using protein extraction and western blotting.
HepG2 cells were homogenized in lysis buffer including a protease and phosphatase inhibitor cocktail. Cell lysates were centrifuged at 12.000 rpm for 15 min. The protein concentrations were determined using the Pierce BCA protein assay kit (Thermo Fisher Scientific). 20 μg of Proteins were resolved on 4-20% gradient gels (Bio-Rad, Hercules, CA) and transferred onto an Immun-Blot PVDF membrane (Bio-Rad). Membranes were blocked with 5% non-fat dry milk or bovine serum albumin in TBPS containing 0.1% Tween for 1 h at RT, followed by an overnight incubation with the respective primary antibody: Phospho-NF-κB p65 and NF-κB p65 (Cell Signaling Technology, Frankfurt, Germany). Membranes were incubated with the corresponding HRP-coupled secondary antibody. Protein bands were visualized using an ECL Western blot detection substrate (Bio-Rad). The band intensities were quantified with the ChemStudio analysis software (Analytik Jena, Jena, Germany) and normalized by GAPDH band intensity.

With Cc1cc(NC(=S)/C(C#N)=C(\O)C2CC2)ccc1C#N [HK4, 2-Cyano-N-(4-cyano-3-methyl-phenyl)-3-cyclopropyl-3-hydroxy-thioacrylamide] the “Caspase 3/7 activity provoked by palmitate 200 μM, with HK4” value ([1]; HepG2, HK4 100 nM + palmitate 200 μM) was 47.32±19.56%, the “Caspase 3/7 activity compared to untreated control cells” value ([1]; HepG2, HK4 alone (100 nM)) was 21.60±2.52% and the “Caspase 7 protein expression vs. PA alone” value [2] was 60.91±4.18%. The “Caspase 3/7 activity provoked by palmitate 100 μM, HK4 pre-treatment” value ([3]; HK4 (10 μM) 1 h prior to palmitate 100 μM) was 58.73±16.86%, the “Caspase 3/7 activity provoked by palmitate 200 μM, HK4 pre-treatment” value ([3]; HK4 (10 μM) 1 h prior to palmitate 200 μM) was 57.13±21.47% and the “Effect on phosphorylation of the NF-κB subunit p65 compared to untreated cells” value ([4]; HepG2, HK4 alone) was “no effect”. The “Ratio of phosphorylated NF-κB to non-phosphorylated NF-κB subunit p65, % of PA” value ([4]; HepG2, pre-incubation with HK4 then palmitate acid, PA = 100%) was 55.24±10.64%.

For CCCCCCCCCCCCCCCC(=O)O [Palmitate acid, palmitic acid, reference compound], the “Caspase 3/7 activity provoked by palmitate 200 μM” value ([1]; HepG2, palmitate 200 μM alone) was 1130±103.3%, the “Caspase 3/7 activity (apoptosis), percentage of control” value ([1]; HepG2, palmitate acid 100 μM alone) was 342.2±12.25% and the “Caspase 3/7 activity provoked by palmitate 100 μM” value ([3]; palmitate 100 μM alone) was 147.3±31.3%. The “Caspase 3/7 activity provoked by palmitate 200 μM” value ([3]; palmitate 200 μM alone) was 155.1±3.78%.

With NCCCC(=O)O [GABA, gamma-Aminobutyric acid] the “PA-induced apoptosis rate (caspase 3/7 activity), with GABA” value ([1]; HepG2, GABA 100 μM + palmitate 200 μM) was 764.9±16.72%.

Reference: patent US20240423946A1, “COMPOUND FOR TREATING NON-ALCOHOLIC FATTY LIVER DISEASE AND RELATED DISEASES” (Algiax Pharmaceuticals GmbH, priority 2021, published 2024)
